Laboratory results taken from PubChem BioAssay (NCI).
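Exposure lasted 48 hours, with cells grown in 96-well plates and compounds tested at five concentrations. Here, GI50 denotes the concentration required for 50% inhibition of growth. TGI: concentration producing complete growth inhibition.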

Experiments:
Experiment in all cases: NCI anticancer screen, dose series, 48 h
M14 melanoma = system: M14 melanoma
NCI-H23 lung = system: NCI-H23 lung
KM12 colon = system: KM12 colon
MDA-MB-231 breast = system: MDA-MB-231 breast
SK-MEL-2 melanoma = system: SK-MEL-2 melanoma
T-47D breast = system: T-47D breast
NCI-H460 lung = system: NCI-H460 lung
BT-549 breast = system: BT-549 breast
UO-31 renal = system: UO-31 renal
HOP-92 NSCLC = system: HOP-92 NSCLC

Structure (SMILES) | TGI (M14 melanoma) | TGI (NCI-H23 lung) | TGI (KM12 colon) | TGI (MDA-MB-231 breast) | TGI (SK-MEL-2 melanoma) | TGI (T-47D breast) | TGI (NCI-H460 lung) | TGI (BT-549 breast) | TGI (UO-31 renal) | TGI (HOP-92 NSCLC) | GI50 (M14 melanoma) | GI50 (MDA-MB-231 breast) | GI50 (SK-MEL-2 melanoma) | GI50 (HOP-92 NSCLC)
NC(=S)N/N=C/c1cc(CN2CCOCC2)c(N)cn1 | 50.9 µM | > 100 µM | > 100 µM | > 100 µM | > 100 µM | > 100 µM | > 100 µM | > 100 µM | > 100 µM |  |  |  |  | 
O=C1/C(=C/c2cccc([N+](=O)[O-])c2)CCCc2ccccc21 | 26.7 µM | 31.4 µM | 16.5 µM | 34.2 µM | 23 µM |  | 34.1 µM | 28.1 µM | 30 µM | 29.6 µM |  |  |  | 
CCOC(=O)CCc1c(C(=O)OCC)[nH]c(/C=C2/NC(=O)C(C)=C2CC)c1C | 20.8 µM | 11.7 µM | 23.9 µM | 48.3 µM | 40.9 µM | 9.59 µM | > 100 µM | 6.19 µM | 10.5 µM | 42.4 µM |  |  |  | 
O=C1/C(=C/c2cccc([N+](=O)[O-])c2)COc2ccccc21 | 3.38 µM | 18.2 µM | 6.29 µM |  | 20 µM |  | > 25.2 µM |  | 67.8 µM | > 72.8 µM |  |  |  | 
N#C/C(=C\c1ccc(Cl)cc1)c1nc2ccccc2c(=O)[nH]1 | > 100 µM |  | > 100 µM | > 100 µM | > 100 µM | > 100 µM | > 100 µM | 69.2 µM | > 100 µM | 39.9 µM |  |  |  | 
CCCCCCN(C(=O)Oc1ccccc1)C(C#N)c1ccccc1 (stereo not given) | > 100 µM | > 100 µM | > 100 µM | > 100 µM | > 100 µM | > 100 µM |  | > 100 µM | > 100 µM | > 100 µM |  |  |  | 
Nc1ncc2c(n1)-c1ccccc1OC2NC1CC1 (stereo not given) | > 100 µM | > 100 µM | > 100 µM | > 100 µM | > 100 µM | > 100 µM | > 100 µM | > 100 µM | > 100 µM | > 100 µM |  |  |  | 
CC1CN=C(NCc2ccccc2)S1 (stereo not given) | > 100 µM | > 100 µM | > 100 µM | > 100 µM | > 100 µM | > 100 µM | > 100 µM | > 100 µM | > 100 µM |  |  |  |  | 
CCN(CC)CCCCC1CCN(CC(=O)N2c3ccccc3NC(=O)c3ccccc32)CC1 | 39.7 µM | > 100 µM | > 100 µM |  | > 100 µM |  |  |  | > 100 µM | > 100 µM |  |  |  | 
COc1ccc2oc(=N)c(C(N)=S)cc2c1 | > 100 µM |  | 84.8 µM | 54.1 µM | 38.3 µM | 99.3 µM | 39.7 µM | 43.5 µM | 48.6 µM | 50.7 µM |  |  |  | 
COc1ccc(NC(=O)C2=C(SC)C(C#N)C(=O)N=C2N)cc1 (stereo not given) | > 100 µM | > 100 µM | 8.57 µM | > 100 µM | > 100 µM | > 100 µM | > 100 µM | > 100 µM | > 100 µM | 69.8 µM |  |  |  | 
CC(=O)Nc1ccc(-c2nnc(SCC(=O)Nc3ccccc3Cl)o2)cc1 | > 100 µM | > 100 µM | > 100 µM |  | > 100 µM |  | > 100 µM |  | > 100 µM |  |  |  |  | 
COc1cc(/C=C2\CCCC3=C2NC(N)=NC3c2cc(OC)c(OC)c(OC)c2)cc(OC)c1OC (stereo not given) | 2.91 µM |  |  | > 100 µM | 4.83 µM |  |  |  |  | 5.74 µM | 633 nM | 3.87 µM | 2080 nM | 1580 nM
CCOc1ccc(NCC(=O)N2CC(=O)Nc3ccccc32)cc1 | > 100 µM | > 100 µM | > 100 µM |  | > 100 µM |  | > 100 µM |  | > 100 µM | > 100 µM |  |  |  | 
COC(=O)n1c(=O)nc2c3c(ncn21)Oc1c(c(-c2ccccc2)nn1-c1ccccc1)C3c1ccc(Cl)cc1 (stereo not given) | 2.75 µM | 3.96 µM | 2.66 µM | 3.05 µM | 3.07 µM | 3.23 µM | 3.09 µM | 17.7 µM | 3.28 µM | 3.39 µM |  |  |  | 
N#Cc1c(-c2ccccc2)c(C#N)c(=O)n(NS(=O)(=O)c2ccccc2)c1O | > 100 µM |  | > 100 µM | > 100 µM | > 100 µM |  | > 100 µM | > 100 µM |  | > 100 µM |  |  |  | 
COc1cc(C2c3cccc4cccc(c34)C3CCC(=O)N32)cc(O)c1O (stereo not given) | > 50 µM | > 50 µM | > 50 µM |  | > 50 µM | > 50 µM | > 50 µM | > 50 µM | > 50 µM | > 50 µM |  |  |  | 
Cc1sc2ncnc(NCCc3ccccc3)c2c1C | 41.3 µM | 36 µM | 29.6 µM | 37.9 µM | 31.2 µM | 56.6 µM | 23.9 µM | 62.9 µM | 38.8 µM | 15.5 µM |  |  |  | 
Oc1ccccc1C=Nc1ccc(Oc2ccc(Cl)cc2)c(Cl)c1 | 46 µM | 45.4 µM | 65.1 µM | 40.4 µM | 32.4 µM | 40.1 µM | 54.5 µM | 44.4 µM | 24.2 µM | 41.4 µM |  |  |  | 
CC(=O)NNC=N/C(C#N)=C(\N)C#N | > 100 µM | > 100 µM | > 100 µM | > 100 µM | > 100 µM | > 100 µM | > 100 µM | > 100 µM | > 100 µM |  |  |  |  | 
Cc1ccc(S(=O)(=O)N/N=C2\C(=O)C3CC2C(Cl)C3Cl)cc1 (stereo not given) | > 100 µM | > 100 µM |  |  |  |  | > 100 µM |  | > 100 µM | > 100 µM |  |  |  | 
C/C(C=O)=N\Nc1cc(C)c2ccccc2n1 | 31.8 µM | 25.9 µM | 28.5 µM | 32.3 µM | 37.8 µM | 39.9 µM |  | 26.6 µM | 28.1 µM | 29.6 µM |  |  |  | 
Cc1ccc(S(=O)(=O)N(c2ccccc2F)C2CCCCC2O)cc1 (stereo not given) | > 100 µM | > 100 µM | > 100 µM | > 100 µM | 93.7 µM |  | > 100 µM | 61.8 µM | > 100 µM |  |  |  |  | 
